Results as given in publication PMC10360169 (Frontiers in Immunology, 2023).

How the values were obtained:
Acar3 = assay type: binding, great reed warbler Acrocephalus arundinaceus; details: for Stability T½ of Acar3 in complex with the peptide: Table S1, top 94 PSCPL-scoring peptides, SPA, 10µM peptide, 125I β2m, folding over night at 18°C, dissociation measured up to 24 hours at 37°C; for Stability T½ (h), peptide - Acar3: Table S5, half-life estimated from dissociation in scintillation proximity assay
HLA-B*15:01 = HLA-B*15:01 (Homo sapiens, UniProt P01889, A329T/A93T/A95T/C349S/D201E/D98Y/E187L/E204Q/E69M/E70A/K202T/N87E/Q94N/R155S/R180W/S121R/S35A/S48A/V306I/V36M/Y140S/Y91S); design: method as in ref [40]-[42] = [40]; 40 Rasmussen M Harndahl M Kristensen A Nielsen I Jorgensen K Stryhn A . Large Scale analysis of peptide - HLA-I stability . ( 2014 ). || [41]; 41 Harndahl M Lamberth K Justesen S Røder G Madsen M Nielsen M . Large Scale analysis of peptide-HLA class I interactions . ( 2007 ). || [42]; 42 Harndahl M Lamberth K Justesen S Røder G Madsen M Sylvester-Hvid C . Large Scale analysis of peptide-HLA class I interactions . ( 2006 ).; details: IEDB; threshold minimum affinity of 500 nM or minimum half-life of 1 h; ref [40]-[42]; cited from earlier work
Acar19 = assay type: binding, great reed warbler Acrocephalus arundinaceus; details: Table S5, half-life estimated from dissociation in scintillation proximity assay

Row | Sequence | Stability T½ (h), peptide - Acar19 (Acar19) | other results
1 | AMSAQAAAF [P1] | – | Stability T½ of Acar3 in complex with the peptide (Acar3): 678 min; Stability T½ (h), peptide - Acar3 (Acar3): 11.3 h; binding to HLA-B*15:01 (HLA-B*15:01): binds
2 | DYQGLPLEF [9-mer peptide] | 3.5 h | Stability T½ of Acar3 in complex with the peptide (Acar3): 12 min; Stability T½ (h), peptide - Acar3 (Acar3): 0.2 h
3 | HAATNFREI [9-mer peptide] | 0.1 h | –
4 | HTAEIQQFF [9-mer peptide] | 0.3 h | –
5 | HYNAFHWAI [9-mer peptide] | 0.3 h | –
6 | HYNAFQWAI [9-mer peptide] | 0.3 h | –
7 | IAAPNMIAV [9-mer peptide] | 0.1 h | –
8 | IAASNLEQF [9-mer peptide] | 0.1 h | –
9 | IAKGIDAEF [9-mer peptide] | 0.1 h | –
10 | IALPVAWLF [9-mer peptide] | 0.1 h | –
11 | IANTTDHFF [9-mer peptide] | 0.2 h | –
12 | IASPILFPF [9-mer peptide] | 0.5 h | –
13 | IFDDLQGSL [9-mer peptide] | 0.1 h | –
14 | IFPSMYFLM [9-mer peptide] | 0.1 h | –
15 | IPAPGLGAL [9-mer peptide] | 0.2 h | –
16 | IPKYLEIEI [9-mer peptide] | 0.2 h | –
17 | IPNYLEIEI [9-mer peptide] | 0.6 h | –
18 | IQNALEKAL [9-mer peptide] | 0.1 h | –
19 | IQNATMDEF [9-mer peptide] | 0.1 h | –
20 | IQNEIMKPL [9-mer peptide] | 0.2 h | –
21 | IQNKLSSTF [9-mer peptide] | 0.2 h | –
22 | ISARGQELF [9-mer peptide] | 0.1 h | –
23 | ISASLAALF [9-mer peptide] | 0.1 h | –

Row | Sequence | Stability T½ (h), peptide - Acar19 (Acar19) | other results
24 | ISDPLTSGL [9-mer peptide] | 0.1 h | –
25 | ITAALAWSL [9-mer peptide] | 0.1 h | –
26 | ITDWLNFTL [9-mer peptide] | 0.1 h | –
27 | ITFHNQRDF [9-mer peptide] | 0.2 h | –
28 | IYAAISYMI [9-mer peptide] | 0.3 h | –
29 | IYGIFQSTF [9-mer peptide] | 0.1 h | –
30 | IYTVIYYIF [9-mer peptide] | 0.2 h | –
31 | IYYWTAWLI [9-mer peptide] | 0.2 h | –
32 | KASSAWHYF [9-mer peptide] | 0.2 h | –
33 | KDPENFDHF [9-mer peptide] | 0.2 h | –
34 | KFHQIEKEF [9-mer peptide] | 0.3 h | –
35 | KSNGAQQWL [9-mer peptide] | 0.1 h | –
36 | LAASVFFTF [9-mer peptide] | 0.2 h | –
37 | LFPELDCFF [9-mer peptide] | 1.6 h | –
38 | LMNELGVPF [9-mer peptide] | 0.6 h | –
39 | LRHSTAHLL [9-mer peptide] | 0.1 h | –
40 | LYIEILRLL [9-mer peptide] | 0.1 h | –
41 | LYPTFYCLF [9-mer peptide] | 0.4 h | –
42 | MAMGILHTI [9-mer peptide] | 0.1 h | –
43 | MFMMIFHFV [9-mer peptide] | 0.4 h | –
44 | MPARLWLCL [9-mer peptide] | 0.9 h | –
45 | MSNPLTSPI [9-mer peptide] | 6.3 h | –
46 | MYLRTIYDL [9-mer peptide] | 4.0 h | –

Row | Sequence | Stability T½ (h), peptide - Acar19 (Acar19) | other results
47 | MYMALIAAF [9-mer peptide] | 0.3 h | –
48 | NAFHHPSAV [9-mer peptide] | 0.1 h | –
49 | NHIRIEYII [9-mer peptide] | 0.4 h | –
50 | NPLEIYQEI [9-mer peptide] | 0.8 h | –
51 | NPSVLKILL [9-mer peptide] | 0.2 h | –
52 | NTARLMAGA [9-mer peptide] | 0.2 h | –
53 | NTDEIPELI [9-mer peptide] | 0.2 h | –
54 | NTFAAWLPM [9-mer peptide] | 0.6 h | –
55 | NVGRILGYV [9-mer peptide] | 0.5 h | –
56 | NYFNRMFHF [9-mer peptide] | 0.7 h | –
57 | NYMPYVFTL [9-mer peptide] | 14.9 h | –
58 | NYNGLLSSI [9-mer peptide] | 19.1 h | –
59 | QRASNVFDL [9-mer peptide] | 0.2 h | –
60 | QTSSIEGAW [9-mer peptide] | 0.1 h | –
61 | QYPAFVLFI [9-mer peptide] | 0.2 h | –
62 | RPAPATGAL [9-mer peptide] | 0.3 h | –
63 | SFHIIEWLF [9-mer peptide] | 0.2 h | –
64 | SFIPIFYQF [9-mer peptide] | 1.2 h | –
65 | STAPTGSWF [9-mer peptide] | 0.2 h | –
66 | STYGISEDL [9-mer peptide] | 0.1 h | –
67 | SYLGLTQPF [9-mer peptide] | 0.2 h | –
68 | SYLQAIGIL [9-mer peptide] | 0.1 h | –
69 | SYQALAFDI [9-mer peptide] | 0.5 h | –

Row | Sequence | Stability T½ (h), peptide - Acar19 (Acar19) | other results
70 | TFMGMNVQF [9-mer peptide] | 0.1 h | –
71 | TFMYVFSTF [9-mer peptide] | 0.2 h | –
72 | TNTQNNDWF [9-mer peptide] | 0.2 h | –
73 | TRAPAPFPL [9-mer peptide] | 0.1 h | Stability T½ (h), peptide - Acar3 (Acar3): 0.1 h
74 | TTLSIYFLL [9-mer peptide] | 0.1 h | –
75 | TYMFTHIDL [9-mer peptide] | 0.1 h | –
76 | TYSPALNKM [9-mer peptide] | 0.1 h | –
77 | VMKRNFIDF [9-mer peptide] | 0.1 h | –
78 | VQHNIKHSF [9-mer peptide] | 0.1 h | –
79 | VSFSMVGLF [9-mer peptide] | 0.1 h | –
80 | VTNRHEEKF [9-mer peptide] | 0.1 h | –
81 | WFGHLASDW [9-mer peptide] | 0.1 h | –
82 | WYAPVALLF [9-mer peptide] | 0.2 h | –
83 | YFDPANGKF [9-mer peptide] | 0.1 h | –
84 | YISPIFIPM [9-mer peptide] | 0.1 h | –
85 | YNAELLVAL [9-mer peptide] | 0.2 h | –
86 | YQAGISAAL [9-mer peptide] | 0.2 h | –
87 | YRSMIAFKL [9-mer peptide] | 0.1 h | –
88 | YTMELCGAM [9-mer peptide] | 0.1 h | –
89 | YTYPIAHTA [9-mer peptide] | 0.1 h | –
90 | YYNAFHWAI [9-mer peptide] | 0.4 h | –
91 | YYNAFQWAI [9-mer peptide] | 0.4 h | –
92 | YYSNKVFPI [9-mer peptide] | 0.2 h | –
